Like-named read-outs stand apart in the source and are kept apart here.
What was measured:
human NAMPT = human NAMPT (Homo sapiens, UniProt P43490); assay: Human recombinant enzyme assay (NMN fluorescence biochemical assay, activation of NAMPT)
How it was run: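 Activation of recombinant human NAMPT (6 nM) with 2.5 mM ATP, 20 μM PRPP and 150 μM nicotinamide in 50 mM HEPES pH 7.2, 1 mM DTT, 1 mM CHAPS, 50 mM NaCl, 100 mM MgCl2; 60 min, ambient temperature. NMN formed was derivatized with acetophenone/KOH/formic acid, fluorescence read at 355/460 nm after 40 min.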

endogenous NAMPT = biological target: T1, endogenous NAMPT (Homo sapiens, UniProt P43490); assay: Cellular NAD+ modulation assay in neuroblastoma SH-SY5Y cells; assay type: cell-based
T1 construct: stimulate the endogenous NAMPT in a native cellular environment; endogenous in cells; host or cells: SH-SY5Y neuroblastoma cells
T1 sequence (P43490 whole entry): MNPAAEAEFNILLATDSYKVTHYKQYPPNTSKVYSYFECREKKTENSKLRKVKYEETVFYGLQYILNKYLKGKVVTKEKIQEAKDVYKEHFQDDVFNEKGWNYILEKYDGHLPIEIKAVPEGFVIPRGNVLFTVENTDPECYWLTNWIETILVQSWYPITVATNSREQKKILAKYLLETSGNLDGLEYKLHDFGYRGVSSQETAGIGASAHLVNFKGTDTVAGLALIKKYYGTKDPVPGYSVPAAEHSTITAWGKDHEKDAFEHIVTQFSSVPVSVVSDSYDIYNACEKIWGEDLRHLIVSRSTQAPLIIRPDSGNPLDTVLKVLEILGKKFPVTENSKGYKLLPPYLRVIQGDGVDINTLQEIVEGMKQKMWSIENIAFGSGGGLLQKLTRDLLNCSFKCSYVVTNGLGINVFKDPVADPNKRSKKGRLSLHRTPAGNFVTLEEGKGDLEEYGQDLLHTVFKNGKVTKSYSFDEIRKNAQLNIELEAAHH
Protocol: The compounds described herein were also assayed for their ability to stimulate the endogenous NAMPT in a native cellular environment in the cellular NAD+ modulation assay, which measures the ability of the compound to modulate cellular NAD levels. Increased levels of NAD are expected by compounds that permeate the cells and activate the catalytic activity of the endogenous NAMPT.
Neuroblastoma SH-SY5Y cells were grown in 1:1 mixture of Eagle's Minimum Essential Medium and F12 Medium, along with 10% fetal bovine serum, in a humidified incubator with an atmosphere of 95% air and 5% CO2 at 37° C. The assays were initiated by plating 20 μL of SH-SY5Y cells in culture medium with 0.1% fetal bovine serum, at a density of 5000 cells per well to a 384-well Corning™ BioCoat™ Poly-D-Lysine Multiwell Plates. The plates were incubated in the 37° C. incubators for a period of 5 hours. Compounds in DMSO were added to the plates in a volume of 120 nL using the Labcyte Echo Liquid Handlers. […] The plates are then incubated for 40 hours. 30 μL of a readout-solution containing 0.2 U/mL Diaphorase enzyme, 40 uM resazurin, 10 uM FMN, 0.8 U/mL Alcohol dehydrogenase, 3% ethanol, 0.4 mg/mL bovine serum albumin, 0.2% Triton X-100 in 100 mM Tris-HCl, 30 mM EDTA, pH 8.4. The plates were read for fluorescence (Excitation/Emission=540 nm/590 nm) using an EnVision plate reader after 60 mins of incubation at ambient temperature.

[1] = Table A, human recombinant NAMPT, NMN formation, 60 min
[2] = Table A, human recombinant NAMPT, NMN formation, 60 min, read-out: EC50 Human
[3] = Table B, SH-SY5Y cells, cellular NAD levels, doxorubicin, 40 hours
[4] = Table B, SH-SY5Y cells, cellular NAD levels, doxorubicin, 40 hours, read-out: EC50

human NAMPT, sequence (P43490 whole entry): as above

| Compound | AC1.4 Human (human NAMPT; [1]) [µM] | EC50 (human NAMPT; [2]) [nM] | AC0.3 (endogenous NAMPT; [3]) [µM] | EC50 (endogenous NAMPT; [4]) [nM] | EC50 (human NAMPT) [nM] | EC50 (endogenous NAMPT) [nM] |
| --- | --- | --- | --- | --- | --- | --- |
| COc1ccc(CNC(=O)NC2CC3(C2)CC(C(=O)N2CCN(CC(C)(C)O)CC2)C3)cc1 (stereo not shown) [Compound 76, 1-(6-(4-(2-hydroxy-2-methylpropyl)piperazine-1-carbonyl)spiro[3.3]heptan-2-yl)-3-(4-methoxybenzyl)urea] | 0.7 | 17800 | 5.9 | 4700 | – | – |
| CC(C)(O)CN1CCN(C(=O)[C@H]2C[C@@]3(C[C@H](NC(=O)NCc4ccc(Cl)cc4)C3)C2)CC1 (single isomer, unassigned) [Compound 187] | – | – | – | – | 600 | 200 |
| O=C(NCCCCC1CCN(C(=O)c2ccccc2)CC1)NCc1cnco1 [Compound 23, 1-(4-(1-benzoylpiperidin-4-yl)butyl)-3-(oxazol-5-ylmethyl)urea] | 0.1 | 1400 | 0.3 | 300 | – | – |
| COc1ccc(CNC(=O)N[C@H]2C[C@]3(C2)C[C@H](C(=O)N2CCCc4ccccc42)C3)cc1 (stereo partly shown) [Compound 229, 1-(4-methoxy-benzyl)-3-(6-(1,2,3,4-tetrahydro-quinoline-1-carbonyl)spiro[3.3]heptan-2-yl)urea] | – | 1200 | – | 200 | – | – |
| COc1ccc(CNC(=O)NC2CC3(C2)CC(C(=O)N(C)c2ccccc2)C3)cc1 (stereo not shown) [Compound 87, 6-(3-(4-methoxybenzyl)ureido)-N-methyl-N-phenylspiro[3.3]heptane-2-carboxamide] | 0.6 | 27400 | 3.4 | 2400 | – | – |
| COc1ccc(CNC(=O)NC2CC3(C2)CC(C(=O)N(C)C2CCOC2)C3)cc1 (stereo in doubt) [Compound 79, (R)-6-(3-(4-methoxybenzyl)ureido)-N-methyl-N-(tetrahydrofuran-3-yl)spiro[3.3]heptane-2-carboxamide] | 1.4 | 39800 | 5.8 | 5800 | – | – |
| COc1ccc(CNC(=O)NC2CC3(CC(Cc4ccncc4)C3)C2)cc1 (stereo not shown) [Compound 330, 1-(4-methoxybenzyl)-3-(6-(pyridin-4-ylmethyl)spiro[3.3]heptan-2-yl)urea] | 0.1 | 3900 | 0.5 | 8100 | – | – |
| O=C(NCc1ccc(Cl)cc1)NC1CC2(C1)CC(NS(=O)(=O)c1ccccc1)C2 (stereo not shown) [Compound 121] | 1.5 | – | 0.6 | – | 5700 | 1200 |
| O=C(NCCCCC1CCN(C(=O)c2ccccc2)CC1)NCc1ccc(Cl)cc1 [Compound 16, 1-(4-(1-benzoylpiperidin-4-yl)butyl)-3-(4-chlorobenzyl)urea] | 0.1 | – | 0.1 | – | 300 | 100 |
| N#Cc1ccccc1C(=O)NC1CC2(CC(NC(=O)NCc3ccc(Cl)cc3)C2)C1 (stereo not shown) [Compound 212, N-(6-(3-(4-chlorobenzyl)ureido)spiro[3.3]heptan-2-yl)-2-cyanobenzamide] | 7.2 | – | 0.3 | – | 6000 | 100 |
| O=C(NCCCCC1CCN(C(=O)c2ccccc2)CC1)NCc1ccc(CO)cc1 [Compound 22, 1-(4-(1-benzoylpiperidin-4-yl)butyl)-3-(4-(hydroxymethyl)benzyl)urea] | 0.1 | 1100 | 0.4 | 100 | – | – |

Second part, led by results:

| AC1.4 Human (human NAMPT; [1]) [µM] | EC50 (human NAMPT; [2]) [nM] | AC0.3 (endogenous NAMPT; [3]) [µM] | EC50 (endogenous NAMPT; [4]) [nM] | Compound | EC50 (human NAMPT) [nM] | EC50 (endogenous NAMPT) [nM] |
| --- | --- | --- | --- | --- | --- | --- |
| 0.6 | 7200 | 8.0 | 12700 | COc1ccc(CNC(=O)NC2CC3(CC(Cn4ncc5ccccc54)C3)C2)cc1 (stereo not shown) [Compound 134] | – | – |
| 10.6 | 42200 | 2.0 | – | Cc1cccc(N2CC[C@]3(C2)C[C@H](NC(=O)NCc2ccc(Cl)cc2)C3)n1 [Compound 199, 1-(4-chlorobenzyl)-3-((2s,4r)-6-(6-methylpyridin-2-yl)-6-azaspiro[3.4]octan-2-yl)urea] | – | – |
| 0.1 | 1600 | 0.9 | 800 | COc1ccc(CNC(=O)NC2CC3(C2)CC(C(=O)N2CCOc4ccccc42)C3)cc1 (stereo not shown) [Compound 85, 1-(6-(3,4-dihydro-2H-benzo[b][1,4]oxazine-4-carbonyl)spiro[3.3]heptan-2-yl)-3-(4-methoxybenzyl)urea] | – | – |
| 62.5 | > 62500 | 0.1 | 100 | Cc1ncccc1CC1CC2(C1)CC(NC(=O)NCc1ccc(Cl)cc1)C2 (stereo not shown) [Compound 346, 1-(4-chlorobenzyl)-3-(6-((2-methylpyridin-3-yl)methyl)spiro[3.3]heptan-2-yl)urea] | – | – |
| – | 2700 | – | 900 | Cc1ccc(C(=O)NC[C@H]2C[C@]3(C2)C[C@@H](NC(=O)NCc2ccc(Cl)cc2)C3)cn1 (stereo partly shown) [Compound 249, N-((6-(3-(4-chlorobenzyl)ureido)spiro[3.3]heptan-2-yl)methyl)-6-methyl-nicotinamide] | – | – |
| 0.5 | 2600 | 0.2 | 300 | O=C(NCc1ccc(Cl)cc1)NC1CC2(C1)CC(NS(=O)(=O)Cc1ccccc1Cl)C2 (stereo not shown) [Compound 120, N-(6-(3-(4-chlorobenzyl)ureido)spiro[3.3]heptan-2-yl)-1-(2-chlorophenyl)methanesulfonamide] | – | – |
| 6.2 | 21700 | 0.7 | 1000 | Cc1ccccc1C(=O)N1CC[C@]2(C1)C[C@@H](NC(=O)NCc1ccc(Cl)cc1)C2 [Compound 162, 1-(4-chlorobenzyl)-3-((2r,4s)-6-(2-methylbenzoyl)-6-azaspiro[3.4]octan-2-yl)urea] | – | – |
| 62.5 | > 62500 | 0.1 | 100 | O=C(NCc1ccc(Cl)cc1)NC1CC2(CC(Cc3ccncc3)C2)C1 (stereo not shown) [Compound 329, 1-(4-chlorobenzyl)-3-(6-(pyridin-4-ylmethyl)spiro[3.3]heptan-2-yl)urea] | – | – |
| 5.7 | 43200 | 9.1 | 10100 | COc1ccc(CNC(=O)NC2CC3(C2)CN(C(=O)c2ccc(C)nc2)C3)cc1 [Compound 138, 1-(4-methoxybenzyl)-3-(2-(6-methylnicotinoyl)-2-azaspiro[3.3]heptan-6-yl)urea] | – | – |
| 0.5 | 27800 | >20.1 | – | Cc1ccc(C(=O)N2CC3(CC(NC(=O)NCc4ccc(C(N)=O)cc4)C3)C2)cc1 [Compound 211, 4-((3-(2-(4-methylbenzoyl)-2-azaspiro[3.3]heptan-6-yl)ureido)methyl)benzamide] | – | – |
